Reference: patent publication US12544361B2, “Composition comprising at least one oxazoline for inhibiting the growth of Malassezia yeasts involved in cradle cap, in particular” (Laboratoires Expanscience, priority 2019, dated 2026)
In brackets after ≈: the same amount, converted by molar mass.

How the values were obtained:
Assay type in all cases: cell-based
[1] = system: Malassezia furfur (ATCC 14521); test: MIC of arabinogalactan and malic acid diester in liquid medium, 96-well plates (GLYcoDiag technology); settings: 48 hours at 32.5° C., about 1.30-10^4 cfu/mL per well, strain ATCC 14521
Method: The minimum inhibitory concentration (MIC) of arabinogalactan and malic acid diester is carried out using a procedure adapted to liquid media in 96-well plates. The MIC study is conducted using GLYcoDiag technology, using the microbial strain Malassezia furfur (American Type Culture Collection (ATCC) reference 14521) as the organism. The cultures are reconstituted according to the instructions of the collection center supplying the reference strain.
Preparation of samples and test microorganisms: the products are diluted in culture medium at the concentrations defined in the table below.
Analytical controls are prepared and used identically to the sample: • a control corresponding to the microbiological medium alone; and • a control consisting of Phenoxyethanol® prepared at 5% (v/v) directly in the microbiological medium associated with each microbial strain.
In order to determine the MIC of the product, it is tested in serial dilutions of 6 dilutions directly in the culture medium intended to promote the growth of the M. furfur strain (96-well microplates). Then, each dilution point is contaminated with the test strain in an amount of about 1.30-10^4 cfu/mL per well. Finally, the tests are incubated for 48 hours at 32.5° C.±2.5° C., taking care to respect the respiratory type of the strain which is facultative aero-anaerobic. […]

[2] = system: Malassezia furfur (ATCC 14521); test: MIC of cycloceramide OX100 in liquid medium, 96-well plates (GLYcoDiag technology); settings: 48 hours at 32.5° C., about 5.20-10^4 cfu/mL per well, strain ATCC 14521
Method: The determination of the minimum inhibitory concentration of cycloceramide OX100 is carried out by a procedure adapted to liquid media in 96-well plates. The MIC study is conducted using GLYcoDiag technology, using the microbial strain Malassezia furfur (American Type Culture Collection (ATCC) reference 14521) as the organism. The cultures are reconstituted according to the instructions of the collection center supplying the reference strain.
Preparation of samples and test microorganisms: OX100 cycloceramide is diluted in culture medium to the following concentrations: final concentrations in culture medium (expressed as percentages by volume): 0.25%; 0.125%; 0.0625%; 0.0312%; 0.01562%; 0.0078%.
Analytical controls are prepared and used identically to the sample: • a control corresponding to the microbiological medium alone; • a control consisting of Phenoxyethanol® prepared at 5% (v/v) directly in the microbiological medium associated with each microbial strain.
In order to determine the MIC of cycloceramide OX100, it is tested in serial dilutions of 6 dilutions directly in the culture medium intended to support the growth of the M. furfur strain (96-well microplates). Then, each dilution point is contaminated with the test strain in an amount of about 5.20-10^4 cfu/mL per well. Finally, the tests are incubated for 48 hours at 32.5° C. […]

[3] = system: Malassezia furfur (CIP 1634.86); test: MIC in solid medium by agar dilution method; settings: CIP1634, strain CIP 1634.86
Method: Protocol: the minimum inhibitory concentration (MIC) of a strain of Malassezia furfur (CIP 1634.86) against cycloceramide OX100 is determined in solid medium by agar dilution method according to COURVALIN P., GOLDSTEIN F., PHILIPPON A. and SIROT J.-Fiche technique 5—L'antibiogramme, édition MPC, 1985, p. 199.

Compound	MIC [1]	MIC [2]	MIC [3] [mg/L]
arabinogalactan	2.5 % (v/v)		
di-C12-C13-alkyl malate [malic acid diester]	1.25 % (v/v)		
CCCCCCCCCCCC1=NC(C)(C)CO1 [OX100, 2-undecyl-4,4-dimethyl-1,3-oxazoline]		0.031 % (v/v)	64 (≈ 253 µM)
